Source: PubChem BioAssay AID328 (DTP/NCI, 2004)
Values joined by “and” are separate entries in the source; they are usually repeats but may differ in a detail not shown here. Equal values may be shown once. Toxic doses and inconclusive results are not listed. Non-standard residues stand in square brackets, D forms with d. Residues, ends and D or L forms follow the SMILES beside them. ξ: configuration not given here. ξF = NC(Cc1ccccc1)C(=O)O

Tested on: BDF1 mice, P388 leukemia ip, median survival T/C
Assay: NCI In Vivo Anticancer Drug Screen. Data for tumor model P388 Leukemia (intraperitoneal) in B6D2F1 (BDF1) mice
Conditions: endpoint: median survival time, higher = longer survival
In short: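 Reported as T/C, where T is the survival measurement in dosed animals and C the same measurement in vehicle controls.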

[1] = dose: 100.0 mg/kg/injection, schedule: Q01DX009 (ip), vehicle: saline with Tween-80
[2] = dose: 200.0 mg/kg/injection, schedule: Q01DX009 (ip), vehicle: saline with Tween-80
[3] = dose: 100.0 mg/kg/injection, schedule: Q04DX003 (ip), vehicle: saline with Tween-80
[4] = dose: 25.0 mg/kg/injection, schedule: Q01DX009 (ip), vehicle: saline
[5] = dose: 50.0 mg/kg/injection, schedule: Q01DX009 (ip), vehicle: saline
[6] = dose: 100.0 mg/kg/injection, schedule: Q01DX009 (ip), vehicle: saline

Question: How did the T/C (dose: 10.0 mg/kg/injection, schedule: Q01DX009 (ip), vehicle: saline with Tween-80) turn out when `O=[N+]([O-])c1ccc(S(=O)c2ccc([N+](=O)[O-])c3no[n+]([O-])c23)cc1` (stereo not given) was run?
Answer: 104 % of control

Question: What about the T/C (dose: 20.0 mg/kg/injection, schedule: Q01DX009 (ip), vehicle: saline with Tween-80) of the same compound?
Answer: 100 % of control

Question: And the T/C (dose: 40.0 mg/kg/injection, schedule: Q01DX009 (ip), vehicle: saline with Tween-80)?
Answer: 102 % of control

Question: `Nc1cc(=O)[nH][nH]1` was tested. Which T/C [1] did it give?
Answer: 104 % of control

Question: And the T/C [2]?
Answer: 109 % of control

Question: And the T/C (dose: 400.0 mg/kg/injection, schedule: Q01DX009 (ip), vehicle: saline with Tween-80)?
Answer: 122 % of control

Question: With `C[N+](C)(Cn1ncc2ccc([N+](=O)[O-])cc21)Cn1ncc2ccc([N+](=O)[O-])cc21` as the compound, how does the T/C [3] read?
Answer: 106 % of control

Question: With `COc1cccc2c1C(=O)c1c(O)c3c(c(O)c1C2=O)C[C@@](O)(C(=O)CO)C[C@@H]3OC1CC(NC(=S)Nc2ccc(F)cc2)C(O)C(C)O1` (stereo not given in full) as the compound, how does the T/C (dose: 6.25 mg/kg/injection, schedule: Q01DX009 (ip), vehicle: saline) read?
Answer: 90 % of control

Question: What about the T/C [4] of the same compound?
Answer: 150 % of control

Question: What about the T/C [5] of the same compound?
Answer: 106 % of control

Question: And the T/C [6]?
Answer: 122 % of control

Question: How did the T/C [1] turn out when `CC(=O)[C@H]1CC[C@H]2[C@@H]3CCC4=CC(=O)[C@H](C)C[C@]4(C)[C@H]3C(=O)C[C@]12C` was run?
Answer: 90 % of control

Question: And the T/C [2]?
Answer: 95 % of control

Question: With `CCOC(=O)c1c[nH]c2cc(C(F)(F)F)ccc2c1=O` as the compound, how does the T/C (dose: 6.25 mg/kg/injection, schedule: Q01DX009 (ip), vehicle: gum acacia) read?
Answer: 116 % of control

Question: What about the T/C (dose: 12.5 mg/kg/injection, schedule: Q01DX009 (ip), vehicle: gum acacia) of the same compound?
Answer: 100 % of control

Question: What about the T/C (dose: 25.0 mg/kg/injection, schedule: Q01DX009 (ip), vehicle: gum acacia) of the same compound?
Answer: 98 % of control

Question: What about the T/C (dose: 25.0 mg/kg/injection, schedule: Q04DX003 (ip), vehicle: gum acacia) of the same compound?
Answer: 91 % of control

Question: And the T/C (dose: 100.0 mg/kg/injection, schedule: Q04DX003 (ip), vehicle: gum acacia)?
Answer: 87 % of control

Question: With `O=C(c1ccccc1)N1CCC(CCO)C(O)C1Cc1c[nH]c2ccccc12` (stereo not given) as the compound, how does the T/C [4] read?
Answer: 100 % of control

Question: And the T/C [5]?
Answer: 96 % of control

Question: What about the T/C (dose: 50.0 mg/kg/injection, schedule: Q04DX003 (ip), vehicle: saline) of the same compound?
Answer: 96 % of control

Question: What about the T/C [6] of the same compound?
Answer: 86 % of control

Question: And the T/C (dose: 100.0 mg/kg/injection, schedule: Q04DX003 (ip), vehicle: saline)?
Answer: 100 % of control

Question: What about the T/C (dose: 200.0 mg/kg/injection, schedule: Q01DX009 (ip), vehicle: saline) of the same compound?
Answer: 108 % of control

Question: What about the T/C (dose: 200.0 mg/kg/injection, schedule: Q04DX003 (ip), vehicle: saline) of the same compound?
Answer: 96 % of control

Question: What about the T/C (dose: 400.0 mg/kg/injection, schedule: Q01DX009 (ip), vehicle: saline) of the same compound?
Answer: 110 % of control

Question: What about the T/C (dose: 400.0 mg/kg/injection, schedule: Q04DX003 (ip), vehicle: saline) of the same compound?
Answer: 98 % of control

Question: What does the source list for `Nc1ncnc2[nH]ncc12`?
Answer: T/C (dose: 1.5 mg/kg/injection, schedule: Q01DX010 (ip), vehicle: saline): 90 % of control; T/C (dose: 3.0 mg/kg/injection, schedule: Q01DX010 (ip), vehicle: saline): 104 % of control and 115 % of control; T/C (dose: 6.0 mg/kg/injection, schedule: Q01DX010 (ip), vehicle: saline): 100 % of control; T/C (dose: 12.0 mg/kg/injection, schedule: Q01DX010 (ip), vehicle: saline): 109 % of control and 110 % of control

Question: What does the source list for `NC(Cc1ccccc1)C(=O)NCC(=O)NCC(=O)O` (stereo not drawn) (H-[ξF]-Gly-Gly-OH)?
Answer: T/C [3]: 95 % of control; T/C (dose: 200.0 mg/kg/injection, schedule: Q04DX003 (ip), vehicle: saline with Tween-80): 104 % of control; T/C (dose: 400.0 mg/kg/injection, schedule: Q04DX003 (ip), vehicle: saline with Tween-80): 109 % of control

Question: `O=C1C(N2CCN(CCO)CC2)=C(N2CC2)C(=O)C(N2CCN(CCO)CC2)=C1N1CC1` was tested. Which T/C (dose: 0.25 mg/kg/injection, schedule: Q01DX009 (ip), vehicle: saline) did it give?
Answer: 241 % of control

Question: And the T/C (dose: 0.5 mg/kg/injection, schedule: Q01DX009 (ip), vehicle: saline)?
Answer: 241 % of control and 249 % of control

Question: And the T/C (dose: 1.0 mg/kg/injection, schedule: Q01DX009 (ip), vehicle: saline)?
Answer: 243 % of control

Question: And the T/C (dose: 2.0 mg/kg/injection, schedule: Q01DX009 (ip), vehicle: saline)?
Answer: 116 % of control

Question: With `CCS(=O)(=O)OCCCCOS(=O)(=O)CC` as the compound, how does the T/C [1] read?
Answer: 108 % of control

Question: `C/C=C(\C)C(=O)OC1CC[N+]2([O-])CCC(COC(=O)/C(=C/C)CO)C12` (stereo not given) was tested. Which T/C (dose: 30.0 mg/kg/injection, schedule: Q01DX010 (ip), vehicle: saline) did it give?
Answer: 111 % of control

Question: And the T/C (dose: 60.0 mg/kg/injection, schedule: Q01DX010 (ip), vehicle: saline)?
Answer: 111 % of control

Question: And the T/C (dose: 100.0 mg/kg/injection, schedule: Q01DX010 (ip), vehicle: saline)?
Answer: 116 % of control

Question: What does the source list for `CSc1ncnc2c1ncn2C1OC(CO)C(O)C1O` (stereo not given)?
Answer: T/C (dose: 4.0 mg/kg/injection, schedule: Q01DX010 (ip), vehicle: saline): 113 % of control; T/C (dose: 8.0 mg/kg/injection, schedule: Q01DX010 (ip), vehicle: saline): 122 % of control; T/C (dose: 32.0 mg/kg/injection, schedule: Q01DX010 (ip), vehicle: saline): 118 % of control
